Measurements taken from patent US12145913B2, “Inhibition of Olig2 activity” (Curtana Pharmaceuticals, Inc., priority 2016, dated 2024).
Where a name gives a salt, the structure may show the parent alone.

Key:
GBM8 cells, intracranial = assay: Survival in orthotopic glioblastoma mouse model, GBM8; assay type: in vivo; details: athymic nude mice, oral daily from day 4, percent increase of median versus vehicle
Excerpt: (§1) Patient-derived xenograft samples were used in this study as a more faithful representation of human glioblastoma compared to immortalized cell lines. The maintenance of patient-derived xenografts exclusively by serial passage in mice has been advocated as a means to faithfully preserve the genetic features of the original tumors. Tumor integrity is periodically confirmed by short tandem repeat assessment. These methods were used to obtain cell suspensions of G06 cells for use in vivo. Briefly, short-term cultured cells were injected into the flank of athymic nude mice (Nu/Nu: Envigo). Tumors grown in these mice were harvested and cultured to afford cell suspension for viability studies. Mice with tumors 1-1.5 cm^3 were euthanized using CO2. Tumors were swabbed with Betadine (Carefusion #29906-016) and excised with a sterile scalpel. The tumor sample was placed in a culture plate and broken up with a sterile syringe. […] The pellets were resuspended in Stem Cell Media to a concentration of […] as measured by a hemocytometer.
(§2) G06 or cultured GBM8 cells (3×10^5, 3 μL), were injected intracranially into anesthetized female athymic nude mice (Nu/Nu: Envigo). […] Animal counts and body weight were monitored daily. Survival improvement was measured as a percent increase of the median for drug treatment versus vehicle.

[1] = tested on: GBM8 human glioblastoma cells; assay: GBM8 viability assay (Cell Titer Glo); assay type: cell-based; details: 72 h, Table 1, 3 days incubation, luminescence
Outline: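 Patient-derived GBM4 and GBM8 neurosphere cells, 4000 per well in EGF/bFGF/heparin-supplemented NeuroCult medium, were exposed to compound (added in 1% DMSO solution) for 3 days at 37° C. Growth was read by CellTiter-Glo luminescence versus DMSO wells, and IC50s came from 4-parameter fits of serial dilutions.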

[2] = tested on: GBM4 human glioblastoma cells; assay: GBM4 viability assay (Cell Titer Glo); assay type: cell-based; details: Table 3, GBM4 cells, read-out: GBM4 IC50 (Cytotoxicity)
Protocol: Cell culture medium was prepared from a NSA proliferation kit (Neurocult) and NeuroCult supplements (Stemcell Tech Cat. #05751) and treated with 20 μL of 10 μg/mL rh EGF, 10 μL of 10 μg/mL rh bFGF and 10 μL of 0.2% Heparin. In this medium, human glioblastoma cells were cultured in ultra-low attachment tissue culture flasks until 1×10^6 cells ml was achieved (GBM4 and GBM8 are distinct neurosphere cell cultures derived from these human patient tissues). GBM4 and GBM8 cells were dissociated and 10 mL of media containing 4000 human glioblastoma cells per 90 μL were transferred to an ultra-low binding 96-well plate and incubated at 37° C. overnight. On the following day, 10 μL of a 1% DMSO solution of test compound in assay medium was added to wells containing the cell suspension and the mixture incubated at 37° C. for 3 days. At this time, the plate was removed from the incubator and allowed to reach room temperature. After about 30 minutes, 50 μL of Cell Titer Glo solution was added to each well and the plate shaken for 1 minute at low speed. After 10 minutes luminescence was recorded using a Tecan Safire2 reader.
Reduction in luminescence compared to DMSO only control wells was used to determine the percentage inhibition of cell growth. IC50s were calculated using the % inhibition of luminescence for serial dilutions of compounds fitted to a 4-parameter fit within the Prism (San Diego) curve fitting program. Tables 1 (compounds 3-188) and 2 (compounds 190-212) show the GBM4 IC50 and GBM8 IC50 for compounds described herein.

[3] = tested on: Human GBM8 glioblastoma flank tumor; assay: Tumor growth inhibition in mouse flank tumor model, GBM8; assay type: in vivo; details: NSG mice; for Compound + Temozolomide + radiation (median TTE): combined with temozolomide and radiation; for Compound (median TTE): compound alone
Protocol: (§3) The animals were fed ad libitum water (reverse osmosis, 1 ppm Cl) and NIH 31 Modified and Irradiated Lab Diet® consisting of 18.0% crude protein. 5.0% crude fat, and 5.0% crude fiber. The mice were housed on irradiated Enrich-o'Cobs™ bedding in static microisolators on a 12-hour light cycle at 20-22° C. (68-72° F.) and 40-60% humidity.
(§4) Human GBM4 or GBM8 glioblastoma cell lines were maintained in Complete NeuroCult Proliferation Medium containing 20 ng/mL EGF, 10 ng/mL bFGF and 2 μg/mL Heparin. The cells were cultured in ultra low attachment T75 flask (Corning REF-3814) and the resulting neurospheres were dissociated every 4-6 days using the NeuroCult Chemical Dissociation kit (Stemcell Technologies Cat #05707). Cell cultures were maintained in tissue culture flasks in a humidified incubator at 37° C., in an atmosphere of 5% CO2 and 95% air. Cell samples were collected one passage prior to cell implant and preserved in freezing media.
(§5) Cells used for implantation were harvested during log phase growth and resuspended in cold PBS containing in 50% Matrigel™ (BD Biosciences). Tumor growth was initiated on Day 1 by subcutaneous injection of GBM4 cells into the right flank of each mouse with 1×10^7 tumor cells (0.1 mL cell suspension) and tumor growth was monitored in four groups (n=8) beginning on Day 12. Groups for treatment included group 1 (vehicle), group 2 (test Olig2 inhibitor), group 3 (treatment with temozolomide and radiation) and group 4 (test Olig2 inhibitor combined with temozolomide and radiation). The tumors were measured with a caliper in two dimensions to monitor size. Tumor size was calculated using the formula. Tumor Volume (mm^3)=w^2×½: where w=width and l=length, in mm, of a tumor. Tumor weight may be estimated with the assumption that 1 mg is equivalent to 1 mm^3 of tumor volume Tumors were measured with a caliper twice weekly for the duration of the study Temozolomide (Merck & Co., Lot No. L046487) was administered orally at doses of 5 mg/kg or 10 mg/Kg). Radiation was adminstered with a Faxitron model CP-160 X-ray system. Each animal was immobilized in a live restrainer. Therapy was administered for 1.3 min at 160 KV and 6.0 mA, providing a dose of 1 gray (Gy) for each animal.
The study endpoint was a tumor volume of 2000 mm^3 or Day 152, whichever came first. Each animal was euthanized for tumor progression (TP) when its tumor reached the volume endpoint. The time to endpoint (TTE) for each animal was calculated with the following equation: […]
The data set is comprised of the first observation that exceeded the study endpoint volume and the three consecutive observations that immediately preceded the attainment of the endpoint volume. […] In instances in which the log-transformed calculated TTE preceded the day prior to reaching endpoint or exceeded the day of reaching tumor volume endpoint, a linear interpolation was performed to approximate the TTE. Any animal determined to have died from treatment-related (TR) causes was assigned a TTE value equal to the day of death. […]
Treatment outcome was evaluated from tumor growth delay (TGD), which was defined as the increase in the median TTE for a treatment group compared to the control group: TGD=T−C, expressed in days, or as a percentage of the median TTE of the control group: TGD(%)=T−C/C×100 • T=median TTE for a treatment group, • C=median TTE for the control group.

[4] = tested on: Human GBM4 glioblastoma flank tumor; assay: Tumor growth inhibition in mouse flank tumor model, GBM4; assay type: in vivo; details: NSG mice
Protocol: as §3, §4
as §5, with “Tumor Volume (mm^3)=w^2×½: where w=width and l=length, in mm, of a tumor.” left out, “Radiation was adminstered with a Faxitron model CP-160 X-ray system. Each animal was immobilized in a live restrainer. Therapy was administered for 1.3 min at 160 KV and 6.0 mA, providing a dose of 1 gray (Gy) for each animal.” left out
The study endpoint was a tumor volume of 2000 mm^3 or Day 152, whichever came first. […] The time to endpoint (TTE) for each animal was calculated with the following equation: […]

[5] = tested on: G06 patient-derived glioblastoma cells, intracranial; assay: Survival in orthotopic glioblastoma mouse model, G06; assay type: in vivo; details: athymic nude mice, oral daily from day 4, percent increase of median versus vehicle
Excerpt: as §1, §2

[6] = Solubility of compound 174 in DI water; assay type: physicochemical; details: thermodynamic from solid, 2 determinations, read-out: Estimated solubility
Protocol: Into a 1 dram vial was added a sample of compound 174. DI water was added until the solid was fully dissolved. Solubility was estimated from the amount of solid per mL of water added. Estimated solubility ˜30 mg/mL (2 determinations).

| Structure (SMILES) | GBM8: Estimated Median Survival Benefit (%) (GBM8 cells, intracranial) | IC50 [1] [nM] | IC50 [2] [nM] | Compound + Temozolomide + radiation (median TTE) [3] [days] | Compound (median TTE) [3] [days] | Compound + Temozolomide + radiation (median TTE) ([4]; combined with temozolomide and radiation) [days] | Compound (median TTE) ([4]; compound alone, endpoint 2000 mm^3 or Day 152) [days] | G06: Estimated Median Survival Benefit (%) [5] [%] | solubility [6] [mg/mL] |
| --- | --- | --- | --- | --- | --- | --- | --- | --- | --- |
| Cc1cc(NCCCN(C)C)nc(NC(=O)Nc2ccc(Cl)c(Cl)c2)n1 [Compound 174, 1-(3,4-dichlorophenyl)-3-(4-((3-(dimethylamino)propyl)amino)-6-methylpyrimidin-2-yl)urea dimethanesulfonic acid salt] | 48 | < 500 | 240 | >140.0 | 61.3 | 152.0 | 73.0 | 54 | ~30 |
| Cc1cc(N)nc(NC(=O)Nc2ccc(OC(F)(F)F)cc2)n1 [Compound 176, 1-(4-amino-6-methylpyrimidin-2-yl)-3-(4-(trifluoromethoxy)-phenyl)urea] | 72 | < 500 |  | 127.9 | 56.4 |  |  | 46 |  |
